Consider 40 compounds from US9309242B2, “Substituted pyrido[2,3-b]pyrazines as FGFR kinase inhibitors” (priority 2011, dated 2016).

The target of test [1] is FGFR1 (h) (Homo sapiens, UniProt P11362). Kind of test: FGFR1 (enzymatic assay), TR-FRET. Type of test: biochemical. The settings on record: read-out: FGFR 1 pIC50 (converted). In general terms: In TR-FRET formats the signal depends on donor and acceptor labels being close together.
In test [2] the test system is Ba/F3-FGFR3-transfected cells. Kind of test: Ba/F3-FGFR3 (plus IL3) cellular proliferation assay, counterscreen with 10 ng/ml murine IL3. Type of test: cell-based. The settings on record: plus IL3 (10 ng/ml murine IL3, counterscreen); read-out: BAF3-FGFR3 (PLUS IL3) pIC50 (converted). Summed up: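 Viability readout was resazurin reduction (ex 540/em 590 nm) after 4 h, following 24 h compound treatment at 37 °C of FGFR3-transfected Ba/F3 cells (20000/well, RPMI-1640/10% FBS). IL3-dependent counterscreen used identical conditions plus 10 ng/ml murine IL3.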
(In general: Counterscreens check selectivity or assay interference.)

Test [3] has as its target Ba/F3-FGFR4-transfected cells (Homo sapiens, UniProt P22455). As to the kind of experiment: Ba/F3-FGFR4 cellular proliferation assay, Alamar Blue. The class given is cell-based. Summed up: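 Proliferation is measured by resazurin reduction: after 24 h compound treatment at 37 °C in RPMI-1640/10% FBS, cells get Alamar Blue for 4 h before RFU read (540/590 nm). Each well holds 20000 Ba/F3-FGFR4-transfected cells.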
(The colour change of resazurin is a common sign of viable cells or microbes.)

Sequence of Ba/F3-FGFR4-transfected cells (P22455 whole entry, change not shown): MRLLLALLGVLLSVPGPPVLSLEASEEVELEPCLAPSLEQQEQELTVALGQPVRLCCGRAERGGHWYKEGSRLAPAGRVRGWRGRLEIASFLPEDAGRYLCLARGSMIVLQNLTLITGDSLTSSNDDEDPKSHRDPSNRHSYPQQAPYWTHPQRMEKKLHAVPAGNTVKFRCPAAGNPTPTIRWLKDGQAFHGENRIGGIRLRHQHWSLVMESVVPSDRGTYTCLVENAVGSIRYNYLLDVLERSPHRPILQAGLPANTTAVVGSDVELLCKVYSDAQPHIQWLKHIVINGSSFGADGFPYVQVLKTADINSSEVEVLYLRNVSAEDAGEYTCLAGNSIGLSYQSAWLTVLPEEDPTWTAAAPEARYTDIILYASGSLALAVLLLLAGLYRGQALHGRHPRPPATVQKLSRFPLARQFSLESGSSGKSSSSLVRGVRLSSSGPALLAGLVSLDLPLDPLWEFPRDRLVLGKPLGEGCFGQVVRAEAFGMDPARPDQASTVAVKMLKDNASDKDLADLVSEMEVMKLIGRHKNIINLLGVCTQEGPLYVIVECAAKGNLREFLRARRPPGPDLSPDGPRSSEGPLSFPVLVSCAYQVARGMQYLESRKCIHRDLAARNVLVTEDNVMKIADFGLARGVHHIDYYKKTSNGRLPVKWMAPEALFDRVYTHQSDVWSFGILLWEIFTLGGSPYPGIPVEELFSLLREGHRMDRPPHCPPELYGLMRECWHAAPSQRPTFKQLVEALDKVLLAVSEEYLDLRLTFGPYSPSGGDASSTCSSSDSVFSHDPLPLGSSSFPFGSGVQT
Sequence of FGFR1 (h) (P11362 22-822): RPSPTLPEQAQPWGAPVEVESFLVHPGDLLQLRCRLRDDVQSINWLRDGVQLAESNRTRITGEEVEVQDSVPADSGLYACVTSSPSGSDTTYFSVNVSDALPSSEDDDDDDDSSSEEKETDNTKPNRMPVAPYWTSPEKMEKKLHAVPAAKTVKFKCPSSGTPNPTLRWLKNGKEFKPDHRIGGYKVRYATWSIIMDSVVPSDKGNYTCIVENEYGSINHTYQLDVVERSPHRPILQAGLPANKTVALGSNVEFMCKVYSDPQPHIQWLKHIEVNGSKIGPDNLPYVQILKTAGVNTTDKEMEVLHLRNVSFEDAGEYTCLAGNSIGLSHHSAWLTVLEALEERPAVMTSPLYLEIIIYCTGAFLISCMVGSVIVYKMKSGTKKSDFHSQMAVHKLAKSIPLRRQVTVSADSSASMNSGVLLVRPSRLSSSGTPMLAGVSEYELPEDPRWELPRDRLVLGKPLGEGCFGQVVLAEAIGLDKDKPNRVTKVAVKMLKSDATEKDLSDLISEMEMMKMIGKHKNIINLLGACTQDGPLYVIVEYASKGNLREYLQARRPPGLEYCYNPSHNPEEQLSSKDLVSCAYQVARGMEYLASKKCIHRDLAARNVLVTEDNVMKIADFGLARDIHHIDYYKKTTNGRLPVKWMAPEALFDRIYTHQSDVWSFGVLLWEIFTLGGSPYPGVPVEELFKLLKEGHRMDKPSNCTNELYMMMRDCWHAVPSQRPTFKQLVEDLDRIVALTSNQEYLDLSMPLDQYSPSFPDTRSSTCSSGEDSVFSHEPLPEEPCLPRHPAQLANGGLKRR

Turning to `COc1ccc(Cl)c(N(CC2CCC(=O)N2)c2ccc3ncc(-c4cnn(C)c4)nc3n2)c1Cl` (single isomer, unassigned) [Compound 90], the IC50 in test [1] was 166 nM; in test [2], above 10000 nM. For the same compound, in test [3], the “BAF3-FGFR4 pIC50” value was below 5.
The matching figures for `COc1cc(OC)c(F)c(N(CCN(C2COC2)C2COC2)c2ccc3ncc(-c4cnn(C)c4)nc3n2)c1F` (single isomer, unassigned) [Compound 163]: 0.977 nM, above 10000 nM and 7.32.
Take `COc1cc(OC)c(F)c(N(CC2CCOC2)c2ccc3ncc(-c4cnn(C)c4)nc3n2)c1` (single isomer, unassigned) [Compound 170]: the figures for the IC50 in test [1] and in test [2] were 2.34 nM and above 10000 nM, respectively. Besides, the “BAF3-FGFR4 pIC50” value in test [3] is recorded as 6.49.
For `COc1cc(OC)c(F)c(N(CC(C)(C)O)c2ccc3ncc(-c4cnn(CC(C)(C)O)c4)nc3n2)c1` (single isomer, unassigned) [Compound 208] the same measures were 3.63 nM, above 10000 nM and 6.16.
As to `COc1cc(/N=c2\ccc3ncc(-c4cnn(C)c4)nc3n2CC2CCC(=O)N2CCO)c(F)c(OC)c1` (single isomer, unassigned) [Compound 219], the IC50 in test [1] is 0.813 nM; in test [2], above 10000 nM. Besides, the “BAF3-FGFR4 pIC50” value in test [3] turned out to be 6.78.
On to `COc1ccc(Cl)c(N(CC2CCC(=O)N2)c2ccc3ncc(-c4cnn(C)c4)nc3n2)c1Cl` (stereo not drawn) [Compound 93], for which the IC50 in test [1] is 66.1 nM; in test [2], above 10000 nM. Further, the “BAF3-FGFR4 pIC50” value in test [3] was 5.02.
For the compound `COc1cc(O)c(F)c(N(Cc2ncc[nH]2)c2ccc3ncc(-c4cnn(C)c4)nc3n2)c1` [Compound 96], the IC50 in test [1] was 0.741 nM; in test [2] it was above 10000 nM. In test [3], the “BAF3-FGFR4 pIC50” value was determined as 7.16.
For `COc1cc(OC)cc(N(Cc2ncc[nH]2)c2ccc3ncc(-c4cn[nH]c4)nc3n2)c1` [Compound 141] the same measures were 0.603 nM, above 10000 nM and 7.40.
The matching figures for `COc1cc(OC)cc(N(CC2COC2)c2ccc3ncc(-c4cnn(C)c4)nc3n2)c1` [Compound 142]: 16.2 nM, above 10000 nM and 5.10.
As to `COc1cc(/N=c2\ccc3ncc(-c4cnn(C)c4)nc3n2CC2COC2)c(F)c(OC)c1` [Compound 143], the IC50 in test [1] was 1.26 nM; in test [2], above 10000 nM. In addition, in test [3], the “BAF3-FGFR4 pIC50” value was 5.29.
As to `COc1cc(OC)c(F)c(N(CC2COC2)c2ccc3ncc(-c4cnn(C)c4)nc3n2)c1` [Compound 144], the IC50 in test [1] is 3.89 nM; in test [2], above 10000 nM. Further, in test [3], the “BAF3-FGFR4 pIC50” value is 6.13.
On to `COc1cc(OC)c(F)c(N(Cc2nccn2CCO)c2ccc3ncc(-c4cnn(C)c4)nc3n2)c1` [Compound 145], for which the results for the IC50 in test [1] and in test [2] were 3.24 nM and above 10000 nM, respectively. For the same compound, the “BAF3-FGFR4 pIC50” value in test [3] is on record as 6.61.
For the compound `COc1cc(OC)cc(N(CCN2CCOCC2)c2ccc3ncc(-c4cnn(C)c4)nc3n2)c1` [Compound 146], the figures for the IC50 in test [1] and in test [2] were 6.76 nM and above 10000 nM, respectively. In test [3], the “BAF3-FGFR4 pIC50” value is reported as around 6.58.
As for `COc1cc(/N=c2\ccc3ncc(-c4cnn(C)c4)nc3n2CCN2CCOCC2)cc(OC)c1` [Compound 147], the IC50 in test [1] was 1.51 nM; in test [2], above 10000 nM. The “BAF3-FGFR4 pIC50” value in test [3] was found to be 6.85.
Take `COc1cc(/N=c2\ccc3ncc(-c4cnn(C)c4)nc3n2CCN2CCOCC2)c(F)c(OC)c1` [Compound 148]: the IC50 was 1.7 nM in test [1] and above 10000 nM in test [2]. In addition, the “BAF3-FGFR4 pIC50” value in test [3] is listed as 7.21.
The matching figures for `COc1cc(OC)c(F)c(N(CCN2CCOCC2)c2ccc3ncc(-c4cnn(C)c4)nc3n2)c1` [Compound 149]: 2.45 nM, above 10000 nM and 7.12.
The matching figures for `COc1cc(OC)cc(N(CCN2CCCC2=O)c2ccc3ncc(-c4cnn(C)c4)nc3n2)c1` [Compound 151]: 38.9 nM, above 10000 nM and 5.49.
Turning to `COc1cc(OC)cc(N(Cc2ncc[nH]2)c2ccc3ncc(-c4ccccc4)nc3n2)c1` [Compound 152], the IC50 in test [1] is 1.07 nM; in test [2], above 10000 nM. For the same compound, the “BAF3-FGFR4 pIC50” value in test [3] came to 7.46.
The matching figures for `COc1cc(/N=c2\ccc3ncc(-c4cnn(C)c4)nc3n2Cc2cn[nH]c2)c(F)c(OC)c1` [Compound 155]: 0.55 nM, above 10000 nM and 8.09.
Take `COc1cc(/N=c2\ccc3ncc(-c4cnn(C)c4)nc3n2CCN2CCCC2=O)c(F)c(OC)c1` [Compound 156]: the IC50 in test [1] was 2.95 nM; in test [2], above 10000 nM. For the same compound, the “BAF3-FGFR4 pIC50” value in test [3] came out at 6.68.
In the case of `COc1cc(OC)c(F)c(N(CCN2CCCC2=O)c2ccc3ncc(-c4cnn(C)c4)nc3n2)c1` [Compound 157], the figures for the IC50 in test [1] and in test [2] were 10.5 nM and above 10000 nM, respectively. The “BAF3-FGFR4 pIC50” value in test [3] is given as 6.08.
The matching figures for `COc1cc(/N=c2\ccc3ncc(-c4cnn(C)c4)nc3n2CC2CCC(=O)N2C)c(F)c(OC)c1` (stereo not drawn) [Compound 158]: 1.74 nM, above 10000 nM and 6.78.
The matching figures for `COc1cc(OC)c(F)c(N(CC2CCC(=O)N2C)c2ccc3ncc(-c4cnn(C)c4)nc3n2)c1` (stereo not drawn) [Compound 159]: 8.51 nM, above 10000 nM and 6.20.
For the compound `COc1cc(/N=c2\ccc3ncc(-c4cnn(C)c4)nc3n2CC2CCCOC2)cc(OC)c1` (stereo not drawn) [Compound 165], the IC50 was 1.15 nM in test [1] and above 10000 nM in test [2]. Besides, the “BAF3-FGFR4 pIC50” value in test [3] came to 7.13.
Consider `COc1cc(OC)cc(N(CC2CCCOC2)c2ccc3ncc(-c4cnn(C)c4)nc3n2)c1` (stereo not drawn) [Compound 166], for which the IC50 in test [1] is 5.62 nM; in test [2], above 10000 nM. The “BAF3-FGFR4 pIC50” value in test [3] was found to be 6.24.
For the compound `COc1cc(/N=c2\ccc3ncc(-c4cnn(C)c4)nc3n2CCN)c(F)c(OC)c1` [Compound 167], the IC50 in test [1] was 1.86 nM; in test [2], above 10000 nM. The “BAF3-FGFR4 pIC50” value in test [3] is 6.31.
As to `COc1cc(OC)c(F)c(N(CCN)c2ccc3ncc(-c4cnn(C)c4)nc3n2)c1` [Compound 168], the IC50 in test [1] is 1.7 nM; in test [2], above 10000 nM. In test [3], the “BAF3-FGFR4 pIC50” value is on record as 6.72.
On to `COc1cc(OC)cc(N(Cc2nc(OC)cc(OC)n2)c2ccc3ncc(-c4cnn(C)c4)nc3n2)c1` [Compound 174], for which the IC50 in test [1] is around 39.8 nM; in test [2], above 10000 nM. Further, the “BAF3-FGFR4 pIC50” value in test [3] was 5.45.
As to `Cn1cc(-c2cnc3ccc(N(Cc4ncc[nH]4)c4c(F)c(F)cc(F)c4F)nc3n2)cn1` [Compound 175], the IC50 in test [1] is 4.07 nM; in test [2], above 10000 nM. In addition, the “BAF3-FGFR4 pIC50” value in test [3] was found to be 6.75.
With `COc1cc(OC)c(F)c(N(Cc2ncco2)c2ccc3ncc(-c4cnn(C)c4)nc3n2)c1` [Compound 177], the IC50 was 1.78 nM in test [1] and above 10000 nM in test [2]. In test [3], the “BAF3-FGFR4 pIC50” value was found to be 6.79.
For `COc1cc(OC)c(F)c(N(Cc2c(C)noc2C)c2ccc3ncc(-c4cnn(C)c4)nc3n2)c1` [Compound 178], the IC50 in test [1] was 11.2 nM; in test [2], above 10000 nM. In addition, the “BAF3-FGFR4 pIC50” value in test [3] was 5.83.
Consider `COc1cc(/N=c2\ccc3ncc(-c4cnn(C)c4)nc3n2Cc2c(C)noc2C)c(F)c(OC)c1` [Compound 179], for which the IC50 in test [1] was 2.95 nM; in test [2], above 3020 nM. Moreover, the “BAF3-FGFR4 pIC50” value in test [3] was below 5.52.
For `COc1cc(OC)c(F)c(N(Cc2cc(C)on2)c2ccc3ncc(-c4cnn(C)c4)nc3n2)c1` [Compound 180] the same measures were 1.1 nM, above 10000 nM and 7.10.
On to `COc1cc(/N=c2\ccc3ncc(-c4cnn(C)c4)nc3n2Cc2cc(C)on2)c(F)c(OC)c1` [Compound 181], for which the IC50 was 1.51 nM in test [1] and above 10000 nM in test [2]. Moreover, the “BAF3-FGFR4 pIC50” value in test [3] is on record as 7.55.
For `COc1cc(OC)cc(N(Cc2ncc[nH]2)c2ccc3ncc(-c4cccnc4)nc3n2)c1` [Compound 182] the same measures were 1.7 nM, above 10000 nM and 7.17.
Turning to `COc1cc(/N=c2\ccc3ncc(-c4cnn(C)c4)nc3n2Cc2cc(C)no2)c(F)c(OC)c1` [Compound 184], the IC50 was 0.977 nM in test [1] and above 10000 nM in test [2]. Also, the “BAF3-FGFR4 pIC50” value in test [3] is 8.03.
For `COc1cc(OC)c(F)c(N(Cc2cc(C)no2)c2ccc3ncc(-c4cnn(C)c4)nc3n2)c1` [Compound 185] the same measures were 0.851 nM, above 10000 nM and 7.39.
For `COc1cc(OC)c(F)c(N(Cc2ncc[nH]2)c2ccc3ncc(-c4cn[nH]c4)nc3n2)c1` [Compound 190] the same measures were 0.617 nM, above 10000 nM and 8.08.
Take `COc1cc(OC)c(F)c(N(Cc2ncc[nH]2)c2ccc3ncc(-c4cccnc4)nc3n2)c1` [Compound 190a]: the IC50 in test [1] was 1.02 nM; in test [2] it was above 10000 nM. Moreover, the “BAF3-FGFR4 pIC50” value in test [3] is recorded as 7.11.
`COc1cc(OC)c(F)c(N(Cc2cnn(C)c2)c2ccc3ncc(-c4cnn(C)c4)nc3n2)c1` [Compound 195]: the IC50 was 0.589 nM in test [1] and above 10000 nM in test [2]. In test [3], the “BAF3-FGFR4 pIC50” value is listed as 7.33.
